# Read-outs that look alike come from different tables or passages of the source.
# How the values were obtained:
# [1] = entering the CNS / not entering the CNS; ref Drugbank [36]; cited from earlier work
# [2] = Reversed-phase TLC on RP-2 silanized plates (Rf); format: physicochemical; conditions: silica gel 60 RP-2 F254 silanized; water:methanol:acetonitrile 60:20:20, ammonium acetate pH 7.4
# Method: The purity of the isolated substances was checked by TLC chromatography and densitometric scanning.
# APIs were subjected to chromatographic in column (HPLC) and thin layer (TLC) formats. TLC chromatography was carried out on 20 cm × 20 cm glass plates by Merck, covered with silica gel and the addition of a fluorescent indicator. Merck TLC silica gel 60 F254 was used for the normal phase (NP). In the reverse phase (RP), RP-2 silanized plates were used (Merck TLC Silica gel 60 RP-2 F254, silanized). The mobile phase was buffered with ammonium acetate to pH 7.4 (LACH-NER, ammonium acetate).
# Plates, after developing the chromatograms, were scanned using a densitometer (Desaga CD 60) with an analytical wavelength selected individually for drugs. The values of Rf (molecular descriptors: NP, RP) were determined.
# [3] = HPLC on IAM (immobilized artificial membrane) column, retention factor; format: physicochemical; conditions: IAM.PC.DD.2 column; for k(IAM) retention factor: 10 mM phosphate buffer pH 7.4:acetonitrile 80:20; for logkIAM: logarithm of retention factor, phosphate buffer pH 7.4:acetonitrile 80:20
# Method: Chromatographic data also came from an experiment with a HPLC IAM (immobilized artificial membrane) column (Regis Technologies Inc.: IAM.PC.DD.2, 10 µm; 4.6 mm × 10 mm). The column contains a standard membrane consisting of a phospholipid bilayer. Organic solvents (acetonitrile and methanol) and water (J.T. Baker HPLC) were used in HPLC. Sigma phosphate buffered saline tablets were used to prepare the phosphate buffer. The mobile phase was a mixture of 10 mM phosphate buffer at pH 7.4 and acetonitrile in the ratio of 80:20 (v/v) [35]. The mobile phase flow was set at 0.5 mL/min; detection was carried out with a UV–Vis detector. The obtained values of the retention factor (k IAM) were transformed into a logarithmic form and entered into the statistical analysis (descriptor: log k IAM).
# [4] = Normal-phase TLC on silica gel 60 F254 (Rf); format: physicochemical; conditions: water:methanol:acetonitrile 60:20:20, ammonium acetate pH 7.4
# [5] = cited from earlier work
# [6] = plasma protein binding, given as fraction, ref Drugbank
SMILES,CNS+/- [1],RP (Rf from RP-2 TLC plate) [2],k(IAM) retention factor [3],logkIAM [3],NP (Rf from NP TLC plate) [4],"PB (protein binding) [5, 6]",PB (protein binding) ([5]; plasma)
CCCCCOC(=O)Nc1nc(=O)n([C@@H]2O[C@H](C)[C@@H](O)[C@H]2O)cc1F [capecitabine],1,0.9,1.11,0.04,0.92,–,–
CC[C@H]1OC(=O)[C@H](C)[C@@H](O[C@H]2C[C@@](C)(OC)[C@@H](O)[C@H](C)O2)[C@H](C)[C@@H](O[C@@H]2O[C@H](C)C[C@H](N(C)C)[C@H]2O)[C@](C)(OC)C[C@@H](C)C(=O)[C@H](C)[C@@H](O)[C@]1(C)O [clarithromycin],0,0.83,0.10,-1.02,0.99,–,–
OCCOCCN1CCN(C(c2ccccc2)c2ccc(Cl)cc2)CC1 (stereo not shown) [hydroxyzine],1,–,13.82,1.14,0.55,0.93,–
CN1CCC[C@@H]1Cc1c[nH]c2ccc(CCS(=O)(=O)c3ccccc3)cc12 [eletriptan],1,–,–,–,–,–,–
CCCCN1CCCCC1C(=O)Nc1c(C)cccc1C (stereo not shown) [bupivacaine],1,0.74,–,–,0.67,0.95,–
COc1ccccc1OCCNCC(O)COc1cccc2[nH]c3ccccc3c12 (stereo not shown) [carvedilol],0,–,–,–,0.73,0.98,–
O[C@@H]1CO[C@H]2[C@@H]1OC[C@@H]2O [isosorbide],1,0.54,0.21,-0.68,0.26,–,–
NS(=O)(=O)c1cc(C2(O)NC(=O)c3ccccc32)ccc1Cl (stereo not shown) [chlortalidone],1,–,1.32,0.12,0.96,0.75,–
Nc1ccc(O)c(C(=O)O)c1 [mesalazine],0,0.99,–,–,–,0.43,–
O=C1Nc2ccc(Cl)cc2C(c2ccccc2Cl)=NC1O (stereo not shown) [lorazepam],1,–,9.04,0.96,–,0.87,–
CC[C@@H](CO)NCCN[C@@H](CC)CO [ethambutol],0,0.97,–,–,0.19,–,–
CNC(=C[N+](=O)[O-])NCCSCc1ccc(CN(C)C)o1 [ranitidine],0,0.81,0.67,-0.17,0.24,–,–
CCOc1ccc(/C=C2\NCCc3cc(OCC)c(OCC)cc32)cc1OCC [drotaverine],1,0.55,31.24,1.49,0.61,–,–
OCCN1CCN(CC/C=C2/c3ccccc3Sc3ccc(Cl)cc32)CC1 [zuclopenthixol],1,–,48.73,1.69,0.47,0.985,–
CNCCc1ccccn1 [betahistine],1,0.31,0.90,-0.05,0.17,–,–
CC(=O)[C@H]1CC[C@H]2[C@@H]3CCC4=CC(=O)CC[C@]4(C)[C@H]3CC[C@]12C [progesterone],–,0.71,34.99,1.54,0.96,0.975,–

SMILES,CNS+/- [1],RP (Rf from RP-2 TLC plate) [2],k(IAM) retention factor [3],logkIAM [3],NP (Rf from NP TLC plate) [4],"PB (protein binding) [5, 6]",PB (protein binding) ([5]; plasma)
COc1cc(Cc2cnc(N)nc2N)cc(OC)c1OC [trimethoprim],1,–,–,–,0.57,–,–
OC(CNCC(O)C1CCc2cc(F)ccc2O1)C1CCc2cc(F)ccc2O1 (stereo not shown) [nebivolol],1,0.4,–,–,0.75,–,–
COCCc1ccc(OCC(O)CNC(C)C)cc1 (stereo not shown) [metoprolol],0,0.28,4.32,0.64,0.48,–,–
CCC[C@@H]1C[C@@H](C(=O)N[C@@H]([C@H]2O[C@H](SC)[C@H](O)[C@@H](O)[C@H]2O)[C@@H](C)O)N(C)C1 [lincomycin],0,–,–,–,0.91,0.7,–
C=CCN1C[C@H](C(=O)N(CCCN(C)C)C(=O)NCC)C[C@@H]2c3cccc4[nH]cc(c34)C[C@H]21 [carbegoline],–,0.68,17.05,1.23,0.68,–,0.41
COc1ccc2c(c1)c(CC(=O)O)c(C)n2C(=O)c1ccc(Cl)cc1 [indomethacin],1,–,1.08,0.03,–,0.97,–
CC1(C)S[C@@H]2[C@H](NC(=O)[C@H](N)c3ccc(O)cc3)C(=O)N2[C@H]1C(=O)O [amoxilcillin],–,0.99,0.05,-1.32,0.68,–,0.2
CC(C)NCC(O)c1ccc(NS(C)(=O)=O)cc1 (stereo not shown) [sotalol],1,0.85,1.35,0.13,0.48,–,–
CC(=O)CC(c1ccc([N+](=O)[O-])cc1)c1c(O)c2ccccc2oc1=O (stereo not shown) [acenocumarol],1,–,0.53,-0.27,0.99,–,–
CN(C)CCOC(c1ccccc1)c1ccccc1 [diphenhydramin],–,0.58,3.66,0.56,0.42,–,0.985
C[C@]12C=CC(=O)C=C1CC[C@@H]1[C@@H]2[C@@H](O)C[C@@]2(C)[C@H]1CC[C@]2(O)C(=O)CO [prednizolone],–,0.87,2.84,0.45,0.94,–,0.9
CN(C)C(=N)N=C(N)N [metformin],1,0.78,0.34,-0.47,0.21,–,–
CC(=O)S[C@@H]1CC2=CC(=O)CC[C@]2(C)[C@H]2CC[C@@]3(C)[C@@H](CC[C@@]34CCC(=O)O4)[C@H]12 [spironolactone],–,0.78,13.38,1.13,0.98,0.9,–
CCCc1nc2c(C)cc(-c3nc4ccccc4n3C)cc2n1Cc1ccc(-c2ccccc2C(=O)O)cc1 [telmisartan],1,0.87,4.68,0.67,0.9,–,–
C[C@]12CC[C@@H]3c4ccc(O)cc4CC[C@H]3[C@@H]1CCC2=O [estrone],–,0.79,29.40,1.47,0.99,0.95,–
CCCc1nn(C)c2c(=O)[nH]c(-c3cc(S(=O)(=O)N4CCN(C)CC4)ccc3OCC)nc12 [sildenafil],1,0.77,14.26,1.15,0.69,–,–

# From publication PMC10384010, “Chromatographic Data in Statistical Analysis of BBB Permeability Indices” (Membranes, 2023)
